Assay [1] can be described thus: Binding affinity to influenza A/Beijing/262/95 H1N1 neuraminidase expressed in baculovirus expression system using sialyl-lactose as substrate.
A short description of assay [2]: Inhibition of Influenza A virus (A/Guangdong/03/2009(H1N1)) neuraminidase using 4-MUNANA as substrate preincubated for 1 hr followed by substrate addition and measured after 1 hr by fluorescence assay.
A short description of assay [3]: Inhibition of Influenza A virus (A/Guangdong/05/2009(H1N1)) neuraminidase using 4-MUNANA as substrate preincubated for 1 hr followed by substrate addition and measured after 1 hr by fluorescence assay.
Assay [4] is described as follows: Inhibition of Influenza A virus (A/GuangdongSB/01/2009(H1N1)) neuraminidase using 4-MUNANA as substrate preincubated for 1 hr followed by substrate addition and measured after 1 hr by fluorescence assay.

SMILES strings stand for the structures.

As usually defined, the Ki is the dissociation constant of the complex between target and ligand, obtained from inhibition or displacement. A high value points to weaker binding. In assay [1], `O=S(=O)(O)c1ccccc1Nc1nc(Cl)nc(Nc2ccccc2S(=O)(=O)O)n1` came in with a Ki of 0.28 µM. A word on the IC50: it is the midpoint of a concentration-inhibition curve. With `C/C=C/Oc1cc(C=O)ccc1O`, the half-inhibitory concentration (IC50) in assay [2] was found to be 28 µM; in assay [3], 25 µM; in assay [4] it was 27 µM. As for `O=S(=O)(O)c1cccc(Nc2nc(Cl)nc(Nc3cccc(S(=O)(=O)O)c3)n2)c1`, the inhibition constant Ki in assay [1] stood at 0.13 µM. In the case of `Nc1c(S(=O)(=O)O)cc(Nc2ccc(Nc3nc(Cl)nc(Nc4ccccc4S(=O)(=O)O)n3)c(S(=O)(=O)O)c2)c2c1C(=O)c1ccccc1C2=O`, the Ki in assay [1] was 2.9 µM.

The values above are taken from BindingDB's records for PubMed 35367706 (University of Newcastle, 2022).
